Measurements: patent US20090227619A1, “Harmine derivatives, intermediates used in their preparations, preparation processes and use therefo” (priority 2003, published 2009)
Read-outs that look alike come from different tables or passages of the source.

Tests used:
[1] = test system: Bel-7402; test: In vitro cytotoxicity, IC50 by MTT method, Bel-7402; format: cell-based; details: Homo sapiens, Bel-7402
Experimental: (§1) Culture medium powder RPMI1640 was dissolved in a proper amount of tri-distilled water according to the instruction of the product. […] It was the basic culture solution. The complete culture solution was added with FBS having a final concentration of 10%, 100 U/ml penicillin and 100 µg/ml streptomycin. The solution was fully stirred by a magnetic blender, and the pH of the solution was adjusted to 6.8-7.0. The volume was kept constant. After being filtered and disinfected, the solution was kept into several containers which were sealed and stored at 4° C.
(§2) The cells were placed in a culture dish followed by the addition of complete culture liquid RPMI1640 and then cultured in a incubator comprising 5% CO2 at 37° C. In the exponential growth phase, the cells grew vigorously. If the culture liquid became yellow, the liquid should be replaced instantly.
(§3) The cells, at a concentration of 10^5/ml, were inoculated at a 96-pore culture plate. In each pore, 100 μl cells were inoculated. The cells were placed in a CO2 incubator until the cells were in the logarithmic growth phase. The samples to be tested were added according to the preset concentration gradient. For each gradient, the test was conducted at least three times. An equivalent amount of solvent for dissolving the samples was added in the control group. After 48 h of culture, each pore was added 20 μl MTT (5 mg/ml). The cells were cultured at 37° C. for 4 h. After the supernatant was carefully removed, 100 μl DMSO was added in each pore. The plate was agitated for about 10 minutes such that the precipitates were dissolved. After that, OD value was identified with a Microplate Reader at the wavelength of 490 nm. The survival rate of the cells at various concentrations was calculated according to the following formula:
(§4) Survival rate %=average OD value of the sample group/average OD value of the control group×100%
(§5) Plots of log survival rate of the cells vs. concentration of the medicament were constructed, and the IC50 value of each sample was calculated according to graphing methods.

[2] = test system: PLA-801; test: In vitro cytotoxicity, IC50 by MTT method, PLA-801; format: cell-based
Experimental: as §1, §2, §3, §4, §5

[3] = test system: Lewis lung cancer; details: for Anti-tumor activity compared with harmine (compound 1): Lewis lung cancer in mice, among 22 compounds tested; for Body weight of the animals, end, First time / Body weight of the animals, beginning, First time / Inhibition rate, First time / Weight of the tumor X ± SD, First time / Inhibition rate (%) Lewis cancer: Lewis lung cancer; for Body weight of the animals, end, First time: ip × 10qd; for Inhibition rate (%) Lewis cancer: comparison table 43, in vivo;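 as to all read-outs here: mice implanted subcutaneously in the axilla with Lewis lung tumor cells, treated starting the following day, killed roughly three weeks after implantation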
[4] = test system: HepG2; test: In vitro cytotoxicity, IC50 by MTT method, HepG2; format: cell-based, human; details: Homo sapiens
Experimental: as §1, §2, §3, §4, §5

[5] = test system: Lovo; test: In vitro cytotoxicity, IC50 by MTT method, Lovo; format: cell-based; details: Homo sapiens
Experimental: as §1, §2, §3, §4, §5

[6] = test system: NIH3T3; test: In vitro cytotoxicity, IC50 by MTT method, NIH3T3; format: cell-based; details: Mus musculus
Experimental: as §1, §2, §3, §4, §5

[7] = test system: S180 sarcoma; details: S180 sarcoma; for Body weight of the animals, beginning, First time / Body weight of the animals, end, First time / Inhibition rate, First time / Weight of the tumor X ± SD, First time: ip × 10qd; for Inhibition rate (%) S180 sarcomata: comparison table 43, in vivo
[8] = test system: Hela; test: In vitro cytotoxicity, IC50 by MTT method, Hela; format: cell-based; details: Homo sapiens
Experimental: as §1, §2, §3, §4, §5

[9] = test system: BGC-823; test: In vitro cytotoxicity, IC50 by MTT method, BGC-823; format: cell-based; details: Homo sapiens, BGC-823
Experimental: as §1, §2, §3, §4, §5

COC(=O)c1cc2c([nH]c3ccccc32)c(-c2ccccc2)n1 [Compound 14, methyl 1-phenyl-β-carboline-3-carboxylate]
IC50 ([1]; BeI7402, MTT, read-out: IC50): > 5 mM
IC50 ([2]; PLA-801, MTT, read-out: IC50): 1.9 mM
Anti-tumor activity compared with harmine (compound 1) [3]: a little worse than or equivalent to that of harmines
Body weight of the animals, end, First time ([3]; Dosage 50 (mg/ml)): 23.8 g
Body weight of the animals, beginning, First time ([3]; Dosage 50, ip × 10qd): 20.1 g
Inhibition rate, First time ([3]; Dosage 50, ip × 10qd): 27.57%
Weight of the tumor X ± SD, First time ([3]; Dosage 50, ip × 10qd): 1.76 ± 0.25 g
Body weight of the animals, end, First time ([3]; Dosage 100 (mg/ml)): 23.1 g
Body weight of the animals, beginning, First time ([3]; Dosage 100, ip × 10qd): 20.7 g
Inhibition rate, First time ([3]; Dosage 100, ip × 10qd): 34.16%
Weight of the tumor X ± SD, First time ([3]; Dosage 100, ip × 10qd): 1.60 ± 0.19 g
Inhibition rate (%) Lewis cancer [3]: 32.06%
IC50 ([4]; HepG2, MTT, read-out: IC50): 1.18 mM
IC50 ([5]; Lovo, MTT, read-out: IC50): 2.48 mM
IC50 ([6]; NIH3T3, MTT, read-out: IC50): 490 µM
Body weight of the animals, beginning, First time ([7]; Dosage 50 (mg/ml)): 19.8 g
Body weight of the animals, end, First time ([7]; Dosage 50 (mg/ml)): 26.7 g
Inhibition rate, First time ([7]; Dosage 50 (mg/ml)): 24.43%
Weight of the tumor X ± SD, First time ([7]; Dosage 50 (mg/ml)): 1.98 ± 0.28 g
Body weight of the animals, beginning, First time ([7]; Dosage 100 (mg/ml)): 19.9 g
Body weight of the animals, end, First time ([7]; Dosage 100 (mg/ml)): 25.5 g
Inhibition rate, First time ([7]; Dosage 100 (mg/ml)): 32.06%
Weight of the tumor X ± SD, First time ([7]; Dosage 100 (mg/ml)): 1.78 ± 0.20 g
Inhibition rate (%) S180 sarcomata [7]: 34.16%
IC50 ([8]; Hela, MTT, read-out: IC50): 320 µM
IC50 ([9]; BGC823, MTT, read-out: IC50): 1.68 mM

COC(=O)c1cc2c([nH]c3ccccc32)c(-c2ccc(OC)cc2)n1 [Compound 15, methyl 1-(4-methoxyphenyl)-β-carboline-3-carboxylate]
IC50 ([1]; BeI7402, MTT, read-out: IC50): > 3 mM
IC50 ([2]; PLA-801, MTT, read-out: IC50): > 3 mM
Anti-tumor activity compared with harmine (compound 1) [3]: a little worse than or equivalent to that of harmines
Body weight of the animals, end, First time ([3]; Dosage 50 (mg/ml)): 23.9 g
Body weight of the animals, beginning, First time ([3]; Dosage 50, ip × 10qd): 20.4 g
Inhibition rate, First time ([3]; Dosage 50, ip × 10qd): 25.51%
Weight of the tumor X ± SD, First time ([3]; Dosage 50, ip × 10qd): 1.81 ± 0.28 g
Body weight of the animals, end, First time ([3]; Dosage 100 (mg/ml)): 24.0 g
Body weight of the animals, beginning, First time ([3]; Dosage 100, ip × 10qd): 20.3 g
Inhibition rate, First time ([3]; Dosage 100, ip × 10qd): 32.10%
Weight of the tumor X ± SD, First time ([3]; Dosage 100, ip × 10qd): 1.65 ± 0.17 g
Inhibition rate (%) Lewis cancer [3]: 35.50%
IC50 ([4]; HepG2, MTT, read-out: IC50): > 3 mM
IC50 ([5]; Lovo, MTT, read-out: IC50): > 3 mM
IC50 ([6]; NIH3T3, MTT, read-out: IC50): > 3000 µM
Body weight of the animals, beginning, First time ([7]; Dosage 50 (mg/ml)): 19.8 g
Body weight of the animals, end, First time ([7]; Dosage 50 (mg/ml)): 26.4 g
Inhibition rate, First time ([7]; Dosage 50 (mg/ml)): 23.66%
Weight of the tumor X ± SD, First time ([7]; Dosage 50 (mg/ml)): 2.00 ± 0.16 g
Body weight of the animals, beginning, First time ([7]; Dosage 100 (mg/ml)): 19.9 g
Body weight of the animals, end, First time ([7]; Dosage 100 (mg/ml)): 26.0 g
Inhibition rate, First time ([7]; Dosage 100 (mg/ml)): 35.50%
Weight of the tumor X ± SD, First time ([7]; Dosage 100 (mg/ml)): 1.69 ± 0.16 g
Inhibition rate (%) S180 sarcomata [7]: 32.10%
IC50 ([8]; Hela, MTT, read-out: IC50): > 3000 µM
IC50 ([9]; BGC823, MTT, read-out: IC50): > 3 mM

CCOC(=O)c1cc2c3ccccc3n(CC)c2cn1 [Compound 31, ethyl 9-ethyl-β-carboline-3-carboxylate]
IC50 ([1]; Bel7402 cell strain, read-out: IC50 Bel7402): 0.26 mM
IC50 ([2]; PLA-801 cell strain, read-out: IC50 PLA-801): 0.17 mM
Body weight of the animals, end, First time ([3]; Dosage 50 (mg/ml)): 24.3 g
Body weight of the animals, beginning, First time ([3]; Dosage 50, ip × 10qd): 20.6 g
Inhibition rate, First time ([3]; Dosage 50, ip × 10qd): 30.04%
Weight of the tumor X ± SD, First time ([3]; Dosage 50, ip × 10qd): 1.70 ± 0.12 g
Body weight of the animals, end, First time ([3]; Dosage 100 (mg/ml)): 23.7 g
Body weight of the animals, beginning, First time ([3]; Dosage 100, ip × 10qd): 20.5 g
Inhibition rate, First time ([3]; Dosage 100, ip × 10qd): 36.21%
Weight of the tumor X ± SD, First time ([3]; Dosage 100, ip × 10qd): 1.55 ± 0.22 g
Inhibition rate (%) Lewis cancer [3]: 37.02%
IC50 ([4]; HepG2 cell strain, read-out: IC50 HepG2): 0.11 mM
IC50 ([5]; Lovo cell strain, read-out: IC50 Lovo): 0.07 mM
IC50 ([6]; NIH3T3 cell strain, read-out: IC50 NIH3T3): 100 µM
Body weight of the animals, beginning, First time ([7]; Dosage 50 (mg/ml)): 19.7 g
Body weight of the animals, end, First time ([7]; Dosage 50 (mg/ml)): 26.7 g
Inhibition rate, First time ([7]; Dosage 50 (mg/ml)): 28.04%
Weight of the tumor X ± SD, First time ([7]; Dosage 50 (mg/ml)): 1.88 ± 0.21 g
Body weight of the animals, beginning, First time ([7]; Dosage 100 (mg/ml)): 20.0 g
Body weight of the animals, end, First time ([7]; Dosage 100 (mg/ml)): 26.1 g
Inhibition rate, First time ([7]; Dosage 100 (mg/ml)): 37.02%
Weight of the tumor X ± SD, First time ([7]; Dosage 100 (mg/ml)): 1.65 ± 0.16 g
Inhibition rate (%) S180 sarcomata [7]: 36.21%
IC50 ([8]; Hela cell strain, read-out: IC50 Hela): 140 µM
IC50 ([9]; BGC823 cell strain, read-out: IC50 BGC823): 0.14 mM
